From patent US10519114B2, “Peptidomimetics and methods of using the same” (The Regents of the University of Michigan, priority 2016, dated 2019)

Columns and labels:
[1] = biological target: T1, human κ (CHO-KOR) opioid receptor (Homo sapiens, UniProt P41145); experiment: Radioligand binding assay, [3H]diprenorphine displacement, KOR; conditions: displacement of 0.2 nM [3H]diprenorphine, CHO-KOR membranes; mean ± standard error
T1 construct: expressed in transfected cells
Method: (§1) In Vitro Pharmacology-Cell Lines and Membrane Preparations. All tissue culture reagents were purchased from Gibco Life Sciences (Grand Island, N.Y., U.S.). C6-rat glioma cells stably transfected with a rat μ (C6-MOR) or rat δ (C6-DOR) opioid receptor20 and Chinese hamster ovary (CHO) cells stably expressing a human K (CHO-KOR) opioid receptor21 were used for all in vitro assays. Cells were grown to confluence at 37° C. in 5% CO2 in Dulbecco's modified Eagle medium containing 10% fetal bovine serum and 5% penicillin/streptomycin. Membranes were prepared by washing confluent cells three times with ice cold phosphate buffered saline (0.9% NaCl, 0.61 mM Na2HPO4, 0.38 mM KH2PO4, pH 7.4). Cells were detached from the plates by incubation in warm harvesting buffer (20 mM HEPES, 150 mM NaCl, 0.68 mM EDTA, pH 7.4) and pelleted by centrifugation at 200 g for 3 min. The cell pellet was suspended in ice-cold 50 mM Tris-HCl buffer, pH 7.4, and homogenized with a Tissue Tearor (Biospec Products, Inc., Bartlesville, Okla., U.S.) for 20 s at setting 4. The homogenate was centrifuged at 20 000 g for 20 min at 4° C., and the pellet was rehomogenized in 50 mM Tris-HCl with a Tissue Tearor for 10 s at setting 2, followed by recentrifugation. The final pellet was resuspended in 50 mM Tris-HCl and frozen in aliquots at […]. Protein concentration was determined via Bradford assay using bovine serum albumin as the standard.
(§2) Radioligand Binding Assays. Radioactive compounds were purchased from Perkin-Elmer (Waltham, Mass., U.S.). Opioid ligand binding assays were performed using competitive displacement of 0.2 nM [3H]diprenorphine (250 μCi, 1.85 TBq/mmol) by the test compound from membrane preparations containing opioid receptors. The assay mixture, containing membrane suspension (20 μg protein/tube) in 50 mM Tris-HCl buffer (pH 7.4), [3H]diprenorphine, and various concentrations of test peptide, was incubated at room temperature for 1 h to allow binding to reach equilibrium. The samples were rapidly filtered through Whatman GF/C filters using a Brandel harvester (Brandel, Gaithersburg, Md., U.S.) and washed three times with 50 mM Tris-HCl buffer. The radioactivity retained on dried filters was determined by liquid scintillation counting after saturation with EcoLume liquid scintillation cocktail in a Wallac 1450 MicroBeta (Perkin-Elmer, Waltham, Mass., U.S.). Nonspecific binding was determined using 10 μM naloxone. Inhibitory constant (Ki) values were calculated using nonlinear regression analysis to fit a logistic equation to the competition data using GraphPad Prism, version 5.01, for Windows (GraphPad Software Inc., La Jolla, Calif.). The results presented are the mean±standard error from at least three separate assays performed in duplicate.

[2] = biological target: T2, rat δ (C6-DOR) opioid receptor (Rattus norvegicus, UniProt P33533); experiment: Radioligand binding assay, [3H]diprenorphine displacement, DOR; conditions: displacement of 0.2 nM [3H]diprenorphine, C6-DOR membranes; mean ± standard error
T2 construct: expressed in transfected cells
Method: as §1, §2

[3] = biological target: T2, rat δ (C6-DOR) opioid receptor; experiment: Stimulation of [35S]GTPγS binding, DOR; assay type: biochemical; conditions: for EC50 / EC50 (nm) DOR: [35S]GTPγS binding, C6-DOR membranes, mean ± standard error; for Emax / % stimulation DOR: [35S]GTPγS maximal stimulation compared with 10 μM standard DPDPE
Method: as §1
(§3) Stimulation of [^35S]GTPyS Binding. Agonist stimulation of [35S]guanosine 5′-O-[γ-thio]triphosphate ([^35S]GTPγS, 1250 Ci, 46.2 TBq/mmol) binding was measured as described previously Briefly, membranes (10-20 μg of protein/tube) were incubated 1 h at room temperature in GTPyS buffer (50 mM Tris-HCl, 100 mM NaCl, 5 mM MgCl2, pH 7.4) containing 0.1 nM [^35S]GTPγS, 30 μM guanosine diphosphate (GDP), and varying concentrations of test peptides. Peptide stimulation of [^35S]GTPyS was compared with 10 μM standard compounds [D-Ala^2,N-MePhe^4,Gly-ol]encephalin (DAMGO) at MOR, D-Pen^2,5-enkephalin (DPDPE) at DOR, or […] at KOR. The reaction was terminated by rapidly filtering through GF/C filters and washing 10 times with GTPyS buffer, and retained radioactivity was measured as described above. The results presented are the mean±standard error from at least three separate assays performed in duplicate; maximal stimulation was determined using nonlinear regression analysis with GraphPad Prism (GraphPad Software Inc., La Jolla, Calif.).

[4] = biological target: T3, rat μ (C6-MOR) opioid receptor (Rattus norvegicus, UniProt P33535); experiment: Radioligand binding assay, [3H]diprenorphine displacement, MOR; conditions: displacement of 0.2 nM [3H]diprenorphine, C6-MOR membranes; mean ± standard error
T3 construct: expressed in transfected cells
Method: as §1, §2

[5] = biological target: T3, rat μ (C6-MOR) opioid receptor; experiment: Stimulation of [35S]GTPγS binding, MOR; assay type: biochemical; conditions: for Emax / % stimulation MOR: [35S]GTPγS maximal stimulation compared with 10 μM standard DAMGO
Method: as §1, §3

[6] = biological target: T1, human κ (CHO-KOR) opioid receptor; experiment: Stimulation of [35S]GTPγS binding, KOR; assay type: biochemical
Method: as §1, §3

[7] = [35S]GTPγS binding, C6-MOR membranes, mean ± standard error

T2 sequence (P33533 whole entry): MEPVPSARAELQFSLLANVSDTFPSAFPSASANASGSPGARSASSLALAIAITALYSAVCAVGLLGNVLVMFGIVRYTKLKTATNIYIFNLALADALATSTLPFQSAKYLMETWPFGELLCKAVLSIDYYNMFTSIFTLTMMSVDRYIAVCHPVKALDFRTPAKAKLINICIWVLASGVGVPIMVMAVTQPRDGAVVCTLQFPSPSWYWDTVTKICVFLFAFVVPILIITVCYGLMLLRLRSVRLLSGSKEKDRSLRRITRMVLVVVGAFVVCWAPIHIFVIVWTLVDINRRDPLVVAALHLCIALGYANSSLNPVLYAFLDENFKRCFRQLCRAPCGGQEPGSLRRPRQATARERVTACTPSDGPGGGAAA
T3 sequence (P33535 whole entry): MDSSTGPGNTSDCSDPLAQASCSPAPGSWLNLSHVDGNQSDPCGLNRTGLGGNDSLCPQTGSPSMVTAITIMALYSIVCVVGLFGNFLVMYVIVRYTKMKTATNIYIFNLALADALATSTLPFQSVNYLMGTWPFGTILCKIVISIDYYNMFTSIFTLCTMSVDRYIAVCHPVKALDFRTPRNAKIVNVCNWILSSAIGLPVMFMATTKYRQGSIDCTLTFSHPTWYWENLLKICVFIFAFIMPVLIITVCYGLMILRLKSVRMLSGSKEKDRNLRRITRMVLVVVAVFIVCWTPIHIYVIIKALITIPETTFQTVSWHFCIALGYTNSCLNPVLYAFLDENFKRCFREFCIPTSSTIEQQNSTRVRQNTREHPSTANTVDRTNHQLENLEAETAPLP
T1 sequence (P41145 whole entry): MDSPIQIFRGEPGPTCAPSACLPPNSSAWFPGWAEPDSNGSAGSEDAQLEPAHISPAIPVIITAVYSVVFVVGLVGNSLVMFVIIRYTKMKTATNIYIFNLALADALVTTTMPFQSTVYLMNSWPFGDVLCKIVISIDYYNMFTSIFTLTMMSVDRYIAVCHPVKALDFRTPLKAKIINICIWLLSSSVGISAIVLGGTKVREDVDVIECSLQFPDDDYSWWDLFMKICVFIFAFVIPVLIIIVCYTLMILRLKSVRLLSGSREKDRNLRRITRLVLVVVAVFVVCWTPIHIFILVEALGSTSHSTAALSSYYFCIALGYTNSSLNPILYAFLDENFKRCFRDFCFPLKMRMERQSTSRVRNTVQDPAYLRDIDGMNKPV

Structure (SMILES) | Ki [1] [nM] | Ki [2] [nM] | EC50 [3] [nM] | Emax [3] [%] | Ki [4] [nM] | EC50 [5, 7] [nM] | Emax [5] [%] | EC50 (nm) DOR [3] | % stimulation DOR [3] | % stimulation MOR [5] | EC50 (nm) MOR [5, 7] | EC50 ([6]; [35S]GTPγS binding, CHO-KOR membranes, mean ± standard error) [nM] | Emax ([6]; [35S]GTPγS maximal stimulation compared with 10 μM standard U-69,593) [%]
Cc1cc(O)cc(C)c1C[C@H](N)C(=O)N[C@H]1CCNc2ccc(Oc3ccccc3)cc21 [Compound 1018] | 494 | 277 ± 47.4 | 2000 | 19.6 | 41.3 ± 6.34 | 1300 | 16.6 ± 16.6 | – | – | – | – | – | –
CC(=O)N1CC[C@H](NC(=O)[C@@H](N)Cc2c(C)cc(O)cc2C)c2cc(Oc3ccccc3)ccc21 [Compound 1020] | 787 | 92.9 ± 15.1 | 204 | 16 | 6.25 ± 1.39 | 598 ± 282 | 60.4 ± 2.04 | – | – | – | – | – | –
COc1cc(Cl)c(C[C@H](N)C(=O)N[C@@H]2CCNc3ccc(Cc4ccccc4)cc32)c(Cl)c1 [Compound 1021] | 1210 | 2700 | – | – | 38.1 ± 5.83 | 1390 ± 480 | 34.8 ± 2.52 | – | – | – | – | – | –
N[C@@H](Cc1ccc(Cl)cc1Cl)C(=O)N[C@@H]1CCNc2ccc(Cc3ccccc3)cc21 [Compound 1028] | – | 2090 | – | 0 | 50.6 ± 10.6 | – | 13.8 ± 1.27 | – | – | – | – | – | –
COc1ccccc1Oc1ccc2c(c1)[C@H](NC(=O)[C@@H](N)Cc1c(C)cc(O)cc1C)CCN2 [Compound 1029] | – | 9.97 ± 0.71 | – | 0 | 0.36 ± 0.04 | 46.7 ± 4.12 | 35.7 ± 2.58 | – | – | – | – | – | –
Cc1cc(O)cc(C)c1C[C@H](N)C(=O)N[C@@H]1CCNc2ccc(Oc3cccc(Cl)c3)cc21 [Compound 1030] | – | 2.59 | – | – | 0.08 ± 0.01 | 10.1 ± 3.25 | 27.2 ± 2.11 | – | – | – | – | – | –
COc1ccccc1Oc1ccc2c(c1)[C@H](NC(=O)[C@@H](N)Cc1c(C)cc(O)cc1C)CCN2C(C)=O [Compound 1031] | – | 2.7 | – | – | 0.27 ± 0.05 | 39.7 ± 17 | 30.5 ± 1.74 | – | – | – | – | – | –
CCC(=O)N1CC[C@@H](NC(=O)[C@@H](N)Cc2c(C)cc(O)cc2C)c2cc(CC3Cc4ccccc4C3)ccc21 [Compound 1033] | – | 0.3 ± 0.11 | – | – | 0.06 ± 0.01 | 3.61 ± 2.02 | 52 ± 7.7 | dns | dns | – | – | – | –
COc1cccc2c1CC(Cc1ccc3c(c1)[C@H](NC(=O)[C@@H](N)Cc1c(C)cc(O)cc1C)CCN3)C2 (stereo partly drawn) [Compound 1035, (2S)-2-amino-3-(4-hydroxy-2,6-dimethylphenyl)-N-((4R)-6-((4-methoxy-2,3-dihydro-1H-inden-2-yl)methyl)-1,2,3,4-tetrahydroquinolin-4-yl)propanamide] | – | 4.13 ± 2.27 | – | – | 0.09 | 1.44 | 32.9 | dns | dns | – | – | – | –
COc1ccc2c(c1)CC(Cc1ccc3c(c1)[C@H](NC(=O)[C@@H](N)Cc1c(C)cc(O)cc1C)CCN3)C2 (some centres unmarked) [Compound 1037] | – | 6.15 ± 2.09 | – | – | 0.26 ± 0.15 | 354 | 10.9 | dns | dns | – | – | – | –
CC(=O)N1CC[C@@H](NC(=O)[C@@H](N)Cc2c(C)cc(O)cc2C)c2cccc(Cc3ccccc3)c21 [Compound 1040] | – | 6.19 | – | – | 92.4 | 19 | 8.03 | – | – | – | – | – | –
Cc1cc(O)cc(C)c1C[C@H](N)C(=O)N[C@@H]1CCNc2ccc(CN3CCNCC3)cc21 [Compound 1059] | 11.7 ± 1.56 | 1560 ± 288 | – | – | 16.6 ± 8.63 | 90.5 ± 73.2 | – | – | – | dns | – | – | –
Cc1cc(O)cc(C)c1C[C@H](N)C(=O)N[C@@H]1CCNc2ccc(CN3CCC4(CCCCC4)C3)cc21 [Compound 1105] | 1.66 | 14.1 | – | – | 1.14 | – | – | – | – | – | – | – | –
Cc1cc(O)cc(C)c1C[C@H](N)C(=O)N[C@@H]1CCNc2ccc(CN3CCCC4(CCCCC4)CC3)cc21 [Compound 1106] | 3.08 | 17 | – | – | 0.54 | – | – | – | – | – | – | – | –
CCCc1cc(Cc2ccccc2)cc2c1N(C(C)=O)CC[C@H]2NC(=O)[C@@H](N)Cc1c(C)cc(O)cc1C [Compound 1107] | 32.7 | 1.95 | – | – | 0.35 | – | – | – | – | – | – | – | –
CC(=O)N1CC[C@@H](NC(=O)[C@@H](N)Cc2c(C)cc(O)cc2C)c2cc(Cc3ccccc3)cc(Br)c21 [Compound 1108] | 33.3 | 1.35 | – | – | 0.49 | – | – | – | – | – | – | – | –
N[C@@H](Cc1c(Cl)cc(O)cc1Cl)C(=O)N[C@@H]1CCCc2ccc(Oc3ccccc3)cc21 [Compound 1119] | – | 105 ± 10.5 | – | – | 1.53 ± 0.64 | 118 ± 76 | 20.7 ± 2.91 | dns | dns | – | – | – | –
Cc1cc(O)cc(C)c1C[C@H](N)C(=O)N[C@@H]1CC[C@H](C)c2ccc(Cc3ccccc3)cc21 [Compound 1120] | – | 5.85 ± 0.58 | – | – | 0.08 ± 0.02 | 16 ± 1.94 | 72.3 ± 3.67 | dns | dns | – | – | – | –
Cc1cc(O)cc(C)c1C[C@H](N)C(=O)N[C@@H]1CC[C@@H](C)c2ccc(Cc3ccccc3)cc21 [Compound 1121] | – | 15.8 ± 4.72 | 109 ± 80.7 | 14.3 ± 4.34 | 0.32 ± 0.1 | – | – | – | – | dns | dns | – | –
Cc1cc(O)cc(C)c1C[C@H](N)C(=O)N[C@@H]1CCC(C)(C)c2ccc(Cc3ccccc3)cc21 [Compound 1122] | – | 6.5 ± 0.66 | 1090 ± 654 | 16 ± 2.78 | 0.36 ± 0.08 | 16 ± 4.74 | 75.4 ± 4.06 | – | – | – | – | 2100 | 77.8
